The text below walks through data of ChEMBL document CHEMBL3861981 (J Med Chem, 2016).

For orientation: EC50 means the concentration at which the effect is half-maximal. In general, half-life refers to the time needed for the level to fall by half in the phase considered. A high value points to slow decline. What is called clearance is the volume of plasma or blood freed of the substance per unit of time. Higher therefore signals efficient removal. As a reminder, the AUC is concentration integrated over time. A lower AUC goes with low exposure.

Data set [1] has as its system Hepatitis C virus. The data set is described as follows: Antiviral activity against HCV genotype 1b Con1 expressing NS3 protease infected in human Huh7.5 cells assessed as reduction in viral RNA replication by luciferase reporter gene assay. The format is functional, cell-based, Hepacivirus hominis. Particulars: genotype 1b Con1, Huh-7. For orientation: A reporter such as luciferase makes a cellular process visible.

A short description of data set [2]: Half life in human liver microsomes. The format is ADME. For orientation: Liver microsomes are a subcellular fraction often used to study metabolism.
Data set [3] can be described thus: Half life in cannulated Sprague-Dawley rat plasma at 5 mg/kg, iv administered as 10 mins infusion by LC/MS/MS analysis. The format is ADME, organism-based.
Data set [4] can be described thus: Clearance in cannulated Sprague-Dawley rat plasma at 5 mg/kg, iv administered as 10 mins infusion measured up to 24 hrs post dose by LC/MS/MS analysis. The format is ADME, organism-based.
Data set [5] is described as follows: Oral bioavailability in cannulated Sprague-Dawley rat plasma at 15 mg/kg administered via gavage measured up to 24 hrs post dose by LC/MS/MS analysis. The format is ADME, organism-based.
The nature of data set [6]: AUC in cannulated Sprague-Dawley rat plasma at 15 mg/kg administered via oral gavage measured up to 24 hrs post dose by LC/MS/MS analysis. The format is ADME, organism-based. Also noted: dose 15 mg/kg, time < 24 hr, route oral.
Data set [7] in a line: Drug uptake in cannulated Sprague-Dawley rat liver at 15 mg/kg administered via oral gavage measured at 24 hrs post dose by LC/MS/MS analysis. The format is ADME, organism-based. To be noted: read-out: Drug uptake.
Data set [8] is described as follows: Cardiotoxicity in rabbit heart assessed as change in heart rate at 10 uM perfused for 20 mins measured for 1 min by electrophysiology method relative to control. The format is toxicity, tissue-based, Oryctolagus cuniculus.
Data set [9] is described as follows: Cardiotoxicity in rabbit heart assessed as change in sinoatrial node recovery time at 10 uM perfused for 20 mins measured for 1 min by electrophysiology method relative to control. The format is toxicity, tissue-based, Oryctolagus cuniculus.

Some results are limits rather than exact numbers.

Consider `COc1ccc2c(O[C@@H]3C[C@@H](C(=O)N[C@]4(C(=O)NS(=O)(=O)C5CC5)C[C@H]4C4CC4)N(C(=O)[C@@H](NC(=O)O[C@H](C)C(F)(F)F)C(C)(C)C)C3)nc(OC)cc2c1`, for which, in data set [1], the EC50 stood at 2.4 nM. In addition, the half-life was 106 min in [2] and 180 min in data set [3]. Also, the clearance in [4] was 14 mL/min/kg. The bioavailability in data set [5] is 3.5%. Also, the AUC at 24 h in [6] lay within 0.79 to 0.794 µM·h. Besides, in data set [7], the concentration at 24 h amounted to 19.2 µM. In addition, the Activity in data set [8] is reported as -58%.
Regarding `COc1cnc(O[C@@H]2C[C@@H](C(=O)N[C@]3(C(=O)NS(=O)(=O)C4CC4)C[C@H]3C3CC3)N(C(=O)[C@@H](NC(=O)O[C@H](C)C(F)(F)F)C(C)C)C2)c2cc(Cl)ccc12`, in [1], the EC50 worked out at 8 nM. Besides, the half-life in [2] is 155 min.
With `COc1cnc(O[C@@H]2C[C@@H](C(=O)N[C@]3(C(=O)NS(=O)(=O)C4CC4)C[C@H]3C(C)C)N(C(=O)[C@@H](NC(=O)OC(C)(C)C)C(C)(C)C)C2)c2cc(Cl)ccc12`, in [1], the EC50 is over 100 nM. The same compound returned a half-life in [2] of 83 min.
For `COc1cnc(O[C@@H]2C[C@@H](C(=O)N[C@]3(C(=O)NS(=O)(=O)C4CC4)C[C@H]3C3CC3)N(C(=O)[C@@H](NC(=O)OCC(F)(F)F)C(C)(C)C)C2)c2cc(Cl)ccc12`, in data set [1], the EC50 is 48.6 nM.
`CCC(CC)[C@H](NC(=O)O[C@H](C)C(F)(F)F)C(=O)N1C[C@H](Oc2ncc(OC)c3ccc(Cl)cc23)C[C@H]1C(=O)N[C@]1(C(=O)NS(=O)(=O)C2CC2)C[C@H]1C1CC1`: in data set [1], the EC50 was found to be 7.2 nM. In data set [2], this compound displayed a half-life of 120 min.
On the same counts, the results for `COc1cnc(O[C@@H]2C[C@@H](C(=O)N[C@]3(C(=O)NS(=O)(=O)C4CC4)C[C@H]3C3CC3)N(C(=O)[C@@H](NC(=O)OC(C)(C)C(F)F)C(C)(C)C)C2)c2cc(Cl)ccc12` are 58.2 nM and 120 min.
As to `C=C(C)[C@@H]1C[C@]1(NC(=O)[C@@H]1C[C@@H](Oc2ncc(OC)c3ccc(Cl)cc23)CN1C(=O)[C@@H](NC(=O)OC(C)(C)C)C(C)(C)C)C(=O)NS(=O)(=O)C1CC1`, the EC50 in [1] is 12.5 nM. Further, the half-life in data set [2] is 5 min.
As for `COc1cnc(O[C@@H]2C[C@@H](C(=O)N[C@]3(C(=O)NS(=O)(=O)C4CC4)C[C@H]3C3CC3)N(C(=O)[C@@H](NC(=O)OC3(C)CCCC3)C(C)(C)C)C2)c2cc(Cl)ccc12`, the EC50 in data set [1] is 3.7 nM. The compound further had a half-life in [2] of 24 min.
`C=C[C@@H]1C[C@]1(NC(=O)[C@@H]1C[C@@H](Oc2nccc3cc(OC)ccc23)CN1C(=O)[C@@H](NC(=O)OC(C)(C)C)C(C)(C)C)C(=O)NS(=O)(=O)C1CC1` showed a half-life in data set [2] of 33 min. The compound also came in with an AUC at 24 h in data set [6] of 14.1 µM·h. Besides, the concentration at 24 h in data set [7] is 0.74 µM. The Activity in [8] is -25%; in [9], 290%.
As for `COc1cnc(O[C@@H]2C[C@@H](C(=O)N[C@]3(C(=O)NS(=O)(=O)C4CC4)C[C@H]3C3CC3)N(C(=O)[C@@H](NC(=O)OC(C)C)C(C)(C)C)C2)c2cc(Cl)ccc12`, in data set [1], the EC50 came out at 66.7 nM. Moreover, in data set [2], the half-life turned out to be 35 min.
As to `COc1cnc(O[C@@H]2C[C@@H](C(=O)N[C@]3(C(=O)NS(=O)(=O)C4CC4)C[C@H]3C3CC3)N(C(=O)[C@@H](NC(=O)O[C@H](C)C(F)(F)F)C3CC3)C2)c2cc(Cl)ccc12`, the EC50 in data set [1] was 13.3 nM. This compound displayed a half-life in data set [2] of 200 min.
Consider `COc1cnc(O[C@@H]2C[C@@H](C(=O)N[C@]3(C(=O)NS(=O)(=O)C4CC4)C[C@H]3C3CC3)N(C(=O)[C@@H](NC(=O)O[C@H](C)C(F)(F)F)C(C)(C)C)C2)c2ccc(Cl)cc12`, for which, in [1], the EC50 stood at 3.4 nM. Besides, the results for the half-life in data set [2] and in data set [3] were 142 min and 600 min, respectively. The same compound had a clearance in data set [4] of 30.2 mL/min/kg. Besides, the bioavailability in [5] stood at 81%. Moreover, the AUC at 24 h in data set [6] came to 7.9 µM·h. The concentration at 24 h in [7] is 30.7 µM.
As for `COc1cnc(O[C@@H]2C[C@@H](C(=O)N[C@]3(C(=O)NS(=O)(=O)C4CC4)C[C@H]3C3CC3)N(C(=O)[C@@H](NC(=O)OC3CCCC3)C(C)(C)C)C2)c2cc(Cl)ccc12`, the EC50 in data set [1] worked out at 19.8 nM. In [2], this compound yielded a half-life of 39 min.
Turning to `COc1cnc(O[C@@H]2C[C@@H](C(=O)N[C@]3(C(=O)NS(=O)(=O)C4CC4)C[C@H]3C3CC3)N(C(=O)[C@@H](NC(=O)O[C@H](C)C(F)(F)F)C(C)(C)C)C2)c2cc(Cl)cc(Cl)c12`, in [1], the EC50 came to 3 nM. The half-life is 120 min in [2] and 330 min in [3]. This compound also yielded a clearance in [4] of 40.4 mL/min/kg. Besides, the bioavailability in data set [5] was 42.4%. In data set [6], the AUC at 24 h came to 6.3 µM·h. Further, the concentration at 24 h in data set [7] was determined as 24 µM.
Regarding `COc1cnc(O[C@@H]2C[C@@H](C(=O)N[C@]3(C(=O)NS(=O)(=O)C4CC4)C[C@H]3C3CC3)N(C(=O)[C@@H](NC(=O)O[C@H](C)C(F)(F)F)C(C)(C)C)C2)c2cccc(Cl)c12`, the EC50 in data set [1] came to 1.8 nM. Further, the half-life in data set [2] is 200 min; in data set [3] it was 654 min. In addition, the clearance in [4] was in the range of 40.4 to 40.7 mL/min/kg. In addition, in data set [5], the bioavailability is 122%. The same compound showed an area under the curve (AUC) at 24 h in [6] of 8.6 µM·h. The concentration at 24 h in data set [7] is 49.3 µM. Also, the Activity in [8] is listed as -19%; in [9] it was 53%.
On to `COc1cnc(O[C@@H]2C[C@@H](C(=O)N[C@]3(C(=O)NS(=O)(=O)C4CC4)C[C@H]3C3CC3)N(C(=O)[C@@H](NC(=O)O[C@H](C)C(F)(F)F)C3CCC3)C2)c2cc(Cl)ccc12`, for which, in [1], the EC50 was 8.6 nM. The same compound registered a half-life in [2] of 111 min.
The like results for `CC[C@@H](C)[C@H](NC(=O)O[C@H](C)C(F)(F)F)C(=O)N1C[C@H](Oc2ncc(OC)c3ccc(Cl)cc23)C[C@H]1C(=O)N[C@]1(C(=O)NS(=O)(=O)C2CC2)C[C@H]1C1CC1` were, in that order, 6.3 nM and 98 min.
Turning to `COc1cnc(O[C@@H]2C[C@@H](C(=O)N[C@]3(C(=O)NS(=O)(=O)C4CC4)C[C@H]3C3CC3)N(C(=O)[C@@H](NC(=O)OC(C)(C)C(F)(F)F)C(C)(C)C)C2)c2cc(Cl)ccc12`, in data set [1], the EC50 stood at 1.9 nM. Moreover, the half-life in data set [2] was 128 min; in [3] it was 840 min. This compound also displayed a clearance in data set [4] of 4.7 mL/min/kg. For the same compound, the bioavailability in data set [5] stood at 35.5%. The exposure (AUC) at 24 h in data set [6] was found to be 19.1 µM·h. The concentration at 24 h in data set [7] amounted to 55.3 µM. Further, the results for the Activity in [8] and in data set [9] were -14.3% and 50.4%, respectively.
In the case of `COc1cnc(O[C@@H]2C[C@@H](C(=O)N[C@]3(C(=O)NS(=O)(=O)C4CC4)C[C@H]3C3CC3)N(C(=O)[C@@H](NC(=O)O[C@@H](C)C(F)(F)F)C(C)(C)C)C2)c2cc(Cl)ccc12`, the 50% effective concentration (EC50) in [1] was 146 nM. Also, the half-life in data set [2] is over 200 min.
Turning to `COc1cnc(O[C@@H]2C[C@@H](C(=O)N[C@]3(C(=O)NS(=O)(=O)C4CC4)C[C@H]3C3CC3)N(C(=O)[C@@H](NC(=O)OC3CCC3)C(C)(C)C)C2)c2cc(Cl)ccc12`, the EC50 in [1] turned out to be 16.3 nM. In data set [2], the half-life came to 58 min.
